Laboratory results: patent US6590123B2, “Aminobenzoic acid derivatives having anti-tumorigenic activity, methods of making and using the same” (Mount Sinai School of Medicine of New York University, priority 1998, dated 2003)
Values after ≈ are worked out from the molar mass of the structure shown.

What was measured:
[1] = test system: L1210 Leukemia; experiment: Survival of mice implanted i.p. with L1210 Leukemia; format: in vivo
From the text: Both control and treated animals were examined for ascitic tumor burden daily for 35 days.

[2] = test system: EL4 murine leukemia lymphoma; experiment: Block of mitosis, morphology by microscopy; format: cell-based; design: key: +Block of mitosis was observed; −no mitotic blocking; conditions: 37° C. for 48 hr
Experimental: (§1) All cell lines, with the exception of human SP cells, a biphenotypic leukemic cell line (reference 10 & 11), were obtained from the American Tissue Culture Collection (Rockville, Md.) and were cultured under conditions recommended by the vendor. EL4 murine leukemia lymphoma (as suspension) and B16 mouse melanoma (as monolayer) cell lines were cultivated in RPMI-1640 medium supplemented with 10% fetal bovine serum (FBS), penicillin (250 μ/ml) and streptomycin (250 μml); MOT, a non-tumor proliferative myocardial cell line from rat and NIH 3T3, a non-malignant and proliferative fibroblast cell line from mouse were both cultured as monolayers in Dulbecco's Modified Eagle's Medium with 10% heat inactivated calf serum. CEM, a human acute T-cell leukemic cell line, was cultured as a suspension in Iscove's Dulbecco's Medium with 10% heat inactivated fetal calf serum and antibiotics. PC-3 cells, a human prostate cancer line, was cultured as monolayers in RPMI-1640 with 10% FBS. SP cells were cultured in Minimum Eagle's Medium plus 10% FBS. Human peripheral blood lymphocytes (PBL) were isolated from whole blood of healthy individuals by Ficoll-Hypaque gradient method. Isolated PBL were maintained in RPMI-1640 in the presence of 10% homologous plasma at 37° C. All cells were incubated at 37° C. in 5% C02. Cells in exponential growth were used. […]

[3] = test system: repolymerized microtubules; experiment: Inhibition of microtubule disassembly by spectrophotometry, cell free system; format: biochemical, calf; conditions: 20 μg/ml (66 μM)
Experimental: Purified tubulin was purchased from Sigma (St. Louis, Mo.). The effects of compounds 6, 7, 8, 9, paclitaxel and vinblastine on the microtubule assembly-disassembly process were determined using conditions recommended by the vendor. For assembly inhibition, 100 μl tubulin solution (500-600 μg protein/ml) was mixed gently with 400 μl reaction buffer containing 0.1 M MES (2-[N-morpholino]ethane sulfonic acid), 1 mM EGTA ([…]-N,N,N′,N′-tetraacetic acid), 0.5 mM MgCl2, 0.1 mM EDTA and 2.5 M gycerol at 37° C. Compounds 6, 7, 8, and 9 were next added to each sample at final concentrations of 10, 10, 1 and 1 μg/ml, respectively. After adding GTP to each sample to a final concentration of 1 mM, the microtubule assembly process was monitored by measuring the change of absorbance (OD) at 350 nm on a spectrophotometer (Ultrospec III, Pharmacia LKB, Uppsala, Sweden). […] Changes of absorbance (OD) were monitored at 350 nm for 30 min until the OD values in the controls returned to the starting level, i.e., when the assembly-disassembly cycle was completed.
Purified tubulin from calf brain was purchased from Sigma (St. Louis, Mo.). The effects of 3-BAABU (3-bromoacetoamido, benzoylurea) on the microtubule assembly-disassembly process were determined using the conditions recommended by the vendor. […]

[4] = test system: EL4 murine leukemia lymphoma; experiment: Cytotoxicity, ID50 and ID90 by trypan blue exclusion; format: cell-based; conditions: 48 hr
Experimental: as §1, with “antibiotics.” for “antibiotics. PC-3 cells, a human prostate cancer line, was cultured as monolayers in RPMI-1640 with 10% FBS. SP cells were cultured in Minimum Eagle's Medium plus 10% FBS. Human peripheral blood lymphocytes (PBL) were isolated from whole blood of healthy individuals by Ficoll-Hypaque gradient method. Isolated PBL were maintained in RPMI-1640 in the presence of 10% homologous plasma at 37° C. All cells were incubated at 37° C. in 5% C02. Cells in exponential growth were used.”
(§2) Cells in suspension culture were seeded into 96-well microplates (Falcon, Oxnard, Calif.) at 10^5 cell per well, followed, by treatment with 0-10 μg/ml of the candidate compounds for 48 hr at 37° C. with total volume of 250 μl per well. Cell viability was assessed by trypan blue exclusion.
(§3) The ID50 and ID90 was determined in duplicate in every set of experiments, and each experiment was repeated 3 times under identical conditions. […]

[5] = test system: SP cells; experiment: as above; format: cell-based; conditions: Human MDS, 48 hr
Experimental: as §1, with “antibiotics.” for “antibiotics. PC-3 cells, a human prostate cancer line, was cultured as monolayers in RPMI-1640 with 10% FBS. SP cells were cultured in Minimum Eagle's Medium plus 10% FBS. Human peripheral blood lymphocytes (PBL) were isolated from whole blood of healthy individuals by Ficoll-Hypaque gradient method. Isolated PBL were maintained in RPMI-1640 in the presence of 10% homologous plasma at 37° C. All cells were incubated at 37° C. in 5% C02. Cells in exponential growth were used.”
as §2, §3

SMILES: NC(=O)NC(=O)c1cccc(NC(=O)CBr)c1 [Compound 8, 3-Bromoacetoamido, benzoylurea]
- Survival IL % ([1]; 20 mg/kg ip on days 2 & 8): 44%
- Survival Mean ± SD ([1]; 20 mg/kg ip on days 2 & 8, control 16.5 ± 1.4): 23.7 ± 4.4
- Block of Mitosis [2]: +
- effect on microtubular depolymerization [3]: not influenced
- ID90 [4]: 0.02 ± 0.004 µg/mL (≈ 0.0666 µM)
- ID90 [5]: 0.71 ± 0.11 µg/mL (≈ 2.37 µM)
